{"source": "patent US20080234132A1", "about": "“Microcin B17 Analogs And Methods For Their Preparation And Use” (priority 2004, published 2008)", "key": {"E. coli [1]": {"system": "E. coli", "assay": "In vivo E. coli (Table 5-C summary of haloassays)", "assay_type": "cell-based", "details": "number = not active up to this concentration", "procedure": "Lawns of cells were prepared by spreading, on top of a LB+Agar plate, 3 ml of melted LSS medium (half-agar strength: 0.3 g Agar/50 ml LB) inoculated with 100 μl of a 10 ml LB overnight culture of E. coli cells grown at 37° C. […] The plates were incubated at 37° C. overnight and growth inhibition was qualitatively analysed by measuring the diameter of each halo."}, "[2]": {"system": "Arabidopsis thaliana ecotype Columbia plants", "assay": "Effects on A. thaliana seedlings and plants", "assay_type": "in vivo", "details": "Table 5-C", "experimental": "The microcin derivatives were tested for efficacy in planta against Arabidopsis thaliana ecotype Columbia according to known methods (see Wall et al., 2004). Seeds were germinated on sterile media containing the appropriate peptide and the effects were observed over a three week period. […] In […] seeds, such as A. thaliana, during imbibition the quiescent seed rapidly resumes metabolic and respiratory activity. One of the first steps, as part of this process, is the initiation of mitochondrial DNA synthesis which requires DNA gyrase and which may explain the exquisite sensitivity of the germinating seeds to Peptides 1 and 2.\nThe leaf tissue initially turned yellow, followed by rapid necrosis of the tissue (see FIG. 32). […] The high hydrophility of Peptide 1 may preferentially allow the compound to readily diffuse through the leaf cuticle and epidermis to the mesophyll and phloem below.\nThe heterocyclic compounds were also spotted onto the leaves of 4 week old, tissue culture grown Arabidopsis thaliana ecotype Columbia plants (see FIG. 34, panels A-1). […] The browning and necrosis diffused through the full thickness of the leaf over the next 60 minutes (see FIG. 34, panel F) and spread towards the meristem (see FIG. 34, panels E, F, H). Complete necrosis of the meristem and newly emerged leaves, where organellar replication takes place, was complete within 24 hours (see FIG. 34, panel F)."}, "HT-29 cells [3]": {"system": "HT-29 cells", "assay": "cells", "assay_type": "cell-based, human", "details": "Homo sapiens, HT-29; MTT, 24 hours; read-out: In vivo HT29 Cells (approximate IC50)", "experimental": "(§1) Human cell cultures were initiated from frozen cell stocks (the gift of Dr J. Gavrilovic, UEA). The HT-29 line is derived from a colorectal adenocarcinoma while HeLa cells are derived from a cervical epithelial adenocarcinoma (see FIG. 35). Both human cell lines form adherent cultures and were maintained at 37° C. in T25 culture vessels as 10 mL cultures in CO2 Independent Media containing 10% foetal bovine serum (EU approved), 4 mM L-glutamine, penicillin/streptomycin (Invitrogen). A subcultivation ratio of 1:3 and 1:6 were maintained for HT-29 and HeLa lines respectively. Media was renewed every three days.\n(§2) The assay to determine the effects of the heterocyclic compounds on mammalian cells is based on the cleavage of the yellow tetrazolium salt MTT to purple formazoan crystals by metabolically active cells (Roche). After incubation with MTT and solubilization, the resulting coloured solution is quantified using a scanning spectrophotometer. Each of the cell lines was trypsinised and resuspended in fresh media prior to transfer to sterile flat-bottomed microtitre plates (200 μL per well) and allowed to recover for 16 hours. Five thousand HT-29 or 7500 HeLa cells per 100 μL culture medium were incubated in the presence of the drugs in various concentrations (totalling 10 μL) for 24 hours. Cell viability was then determined by addition of MTT reagent (20 μL) in each well, as per manufacturer's instructions and incubated for a further 4 hours. Solubilization solution (100 μL) was added per well and the plates incubated overnight at 37° C. The plates were read in a spectrophotometer (scanning from 500-650 nm, signal peak at 570 nm). A representative result is illustrated in FIG. 36."}, "HeLa cells [4]": {"system": "HeLa cells", "assay": "cells", "assay_type": "cell-based, human", "details": "Homo sapiens, HeLa; MTT, 24 hours; read-out: In vivo HeLa Cells (approximate IC50)", "experimental": "as §1, §2"}, "HT-29 cells [5]": {"system": "HT-29 cells", "assay": "MTT cell viability assay, HT-29", "assay_type": "cell-based, human", "details": "cell reads on: Active", "procedure": "(§3) Human cell cultures were initiated from frozen cell stocks (the gift of Dr J. Gavrilovic, UEA). […] Both human cell lines form adherent cultures and were maintained at 37° C. in T25 culture vessels as 10 mL cultures in CO2 Independent Media containing 10% foetal bovine serum (EU approved), 4 mM L-glutamine, penicillin/streptomycin (Invitrogen). […] Media was renewed every three days.\n(§4) After incubation with MTT and solubilization, the resulting coloured solution is quantified using a scanning spectrophotometer. […] Cell viability was then determined by addition of MTT reagent (20 μL) in each well, as per manufacturer's instructions and incubated for a further 4 hours. Solubilization solution (100 μL) was added per well and the plates incubated overnight at 37° C. The plates were read in a spectrophotometer (scanning from 500-650 nm, signal peak at 570 nm)."}, "HeLa cells [6]": {"system": "HeLa cells", "assay": "MTT cell viability assay, HeLa", "assay_type": "cell-based, human", "details": "cell reads on: Active", "procedure": "as §3, §4"}, "E. coli [7]": {"system": "E. coli", "assay": "In vivo E. coli activity (Table 5-C)", "assay_type": "cell-based", "details": "cell reads on: Active", "experimental": "In vivo activity was tested using the bioassay developed by Sinha Roy, 1999, with some modifications. The Microcin-sensitive E. coli DH5α was used as the indicator strain. Lawns of cells were prepared by spreading 100 μL of a 10 mL LB culture grown at 37° C. overnight mixed with 3 mL of LSS, on LB+agar (10 g/L) plates. […] The plates were incubated at 37° C. overnight and halos of growth inhibition were qualitatively analyzed by determining their diameters (see FIG. 9).\nLawns of cells were prepared by spreading, on top of a LB+Agar plate, 3 ml of melted LSS medium (half-agar strength: 0.3 g Agar/50 ml LB) inoculated with 100 μl of a 10 ml LB overnight culture of E. coli cells grown at 37° C. Halo assays with MccB17 generally used a DH5α strain (Novagen) but the inventors used the standard E. coli strain (K12) because it is from this strain that the microcin B17-resistant mutant W751R was obtained. […] The plates were incubated at 37° C. overnight and growth inhibition was qualitatively analysed by measuring the diameter of each halo.\nHaloassays were performed as described above."}, "E. coli Topoisomerase IV": {"molecular_target": "E. coli Topoisomerase IV (Escherichia coli, UniProt P0AFI2+P20083)", "sequence (P20083 whole entry)": "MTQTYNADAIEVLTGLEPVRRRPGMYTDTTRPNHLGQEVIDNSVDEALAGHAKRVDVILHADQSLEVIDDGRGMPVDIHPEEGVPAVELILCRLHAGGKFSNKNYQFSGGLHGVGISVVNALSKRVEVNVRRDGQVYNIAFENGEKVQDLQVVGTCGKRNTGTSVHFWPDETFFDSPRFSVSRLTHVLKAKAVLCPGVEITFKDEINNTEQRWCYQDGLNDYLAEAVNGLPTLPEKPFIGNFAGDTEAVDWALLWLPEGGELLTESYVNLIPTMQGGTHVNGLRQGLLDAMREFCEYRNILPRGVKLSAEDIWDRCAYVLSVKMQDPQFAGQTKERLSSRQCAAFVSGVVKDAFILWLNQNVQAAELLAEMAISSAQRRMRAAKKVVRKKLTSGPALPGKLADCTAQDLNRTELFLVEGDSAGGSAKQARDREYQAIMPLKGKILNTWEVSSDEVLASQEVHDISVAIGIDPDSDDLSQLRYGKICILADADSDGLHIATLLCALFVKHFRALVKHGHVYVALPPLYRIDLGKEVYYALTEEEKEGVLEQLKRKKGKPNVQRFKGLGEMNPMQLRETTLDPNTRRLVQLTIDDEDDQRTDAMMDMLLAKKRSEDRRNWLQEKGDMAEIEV", "sequence (P0AFI2 whole entry)": "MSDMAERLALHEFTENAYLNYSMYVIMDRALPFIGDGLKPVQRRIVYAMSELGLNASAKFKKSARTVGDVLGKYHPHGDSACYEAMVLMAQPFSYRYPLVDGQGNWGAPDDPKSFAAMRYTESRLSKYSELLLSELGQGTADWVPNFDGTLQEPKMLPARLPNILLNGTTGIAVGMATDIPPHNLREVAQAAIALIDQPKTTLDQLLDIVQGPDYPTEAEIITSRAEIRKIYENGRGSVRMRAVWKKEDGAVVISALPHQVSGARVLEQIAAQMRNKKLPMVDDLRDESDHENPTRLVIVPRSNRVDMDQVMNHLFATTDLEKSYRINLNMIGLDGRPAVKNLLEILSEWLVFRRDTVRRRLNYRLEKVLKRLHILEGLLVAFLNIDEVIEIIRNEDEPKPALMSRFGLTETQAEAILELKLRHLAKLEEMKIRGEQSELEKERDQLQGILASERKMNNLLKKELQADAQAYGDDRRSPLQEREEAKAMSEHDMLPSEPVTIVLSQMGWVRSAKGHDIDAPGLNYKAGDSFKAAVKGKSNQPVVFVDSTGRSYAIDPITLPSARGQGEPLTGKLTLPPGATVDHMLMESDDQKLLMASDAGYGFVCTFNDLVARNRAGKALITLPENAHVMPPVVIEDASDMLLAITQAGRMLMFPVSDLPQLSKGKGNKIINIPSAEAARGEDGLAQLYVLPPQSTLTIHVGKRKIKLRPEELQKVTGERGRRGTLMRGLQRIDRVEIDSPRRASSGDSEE", "assay": "Topoisomerase IV-mediated decatenation assay", "assay_type": "biochemical", "parameters": "purchased John Innes Enterprises", "experimental": "Topoisomerase IV-mediated relaxation assays and decatenation assays were performed as previously described (see Peng and Marians, 1993). Relaxation assays contained topoisomerase IV (20 nM), 40 mM Tris.HCl pH 7.5 at 30° C., 6 mM MgCl2, 10 mM DTT, 1 mM spermidine.HCl, 20 mM KCl, 1 mM ATP, 0.5 mg/mL BSA, 4.6 nM of supercoiled pBR322 DNA and inhibitor where appropriate. Decatenation assays contained topoisomerase IV (4 nM), 40 mM Tris HCl pH 7.5 at 30° C., 6 mM MgCl2, 10 mM DTT, 1 mM spermidine.HCl, 100 mM potassium glutamate, 0.5 mM ATP, 0.5 mg/mL BSA, 200 ng of kinetoplast DNA, and inhibitor where appropriate.\nAll in vitro reactions were incubated at 37° C. for 30 minutes. The DMSO concentration in each reaction was kept constant at 3.33%. Reactions were quenched with the addition of an equal volume of phenol/chloroform/isoamyl alcohol (25:24:1) and one tenth volume of loading buffer containing 40% sucrose, 100 mM Tris.HCl pH 7.5, 100 mM EDTA, 2 mg/mL bromophenol blue. The proteins were precipitated by vortexing, followed by centrifugation for 5 minutes at 16 000 g. The aqueous phase was loaded onto 1% agarose gels in Tris-acetate and were electrophoresed at 60 V for three hours in Tris-acetate buffer. The gels were stained in 1 μg/mL ethidium bromide. The gels were visualised using UV light and were documented and analysed using Syngene software."}}, "data": [{"smiles": "CC(C)(C)OC(=O)NCc1nc(C(=O)O)co1", "note": "[#6]", "values": [{"measurement": "In vivo E. coli", "setting": "E. coli [1]", "result": "(→400 μM)"}, {"measurement": "In vivo Plants, P (whole plants, expanded Arabidopsis leaves)", "setting": "[2]", "result": "P > 300 μM"}, {"measurement": "IC50", "setting": "HT-29 cells [3]", "result": "> 75", "unit": "µM"}, {"measurement": "IC50", "setting": "HeLa cells [4]", "result": "> 75", "unit": "µM"}, {"measurement": "In vivo HT29 Cells activity", "setting": "HT-29 cells [5]", "result": "Not"}, {"measurement": "In vivo HeLa Cells activity", "setting": "HeLa cells [6]", "result": "Not"}, {"measurement": "In vivo E. coli activity, up to 400 μM", "setting": "E. coli [7]", "result": "Not"}, {"measurement": "Decatenation activity of topoisomerase IV, sensitivity", "setting": "E. coli Topoisomerase IV", "result": "albeit weakly"}]}]}
